Test results reported in patent US11958821B2, “Phenethylamine compounds salts, polymorphic forms and methods of use thereof” (Terran Biosciences Inc., priority 2021, dated 2024).

How the values were obtained:
Male Sprague-Dawley rats [1] = test: Rat elevated zero-maze study with racemic MBDB, R-MBDB, S-MBDB and chlordiazepoxide; settings: for Dose showing a switch to an anxiolytic effect (magnitude of the reduction in SAPs): ip
Description: Two opposite quadrants are enclosed by Perspex walls on both the inner and the outer edges of the platform, while the remaining two opposite quadrants are open being enclosed only by a Perspex “lip”. Animals will show a preference for the closed areas, and avoidance of the open sections is assumed to stem from a rodent's natural aversion to open, exposed spaces. A reduction in the amount of activity on the open areas is considered to reflect an increase in anxiety. The ethologically-based behavior stretched attend postures (SAP) from closed to open quadrants is assessed as an index of anxiety. […] Animals
(§1) Male Sprague-Dawley 200-250 g (Envigo UK) rats were used. Animals were group-housed (5 per cage; cage size: 40×40×20 cm) in a temperature-controlled environment (22±2° C.), under a 12 h light-dark cycle (lights on: 08:00 hours) for one week prior to testing. Food and water were freely available. Number of animals per group=5.
(§2) The elevated 0-maze comprises a black Perspex annular platform (105 cm diameter, 10 cm width) elevated to 65 cm above ground level, divided equally into four quadrants. Two opposite quadrants are enclosed by clear red Perspex walls (27 cm high) on both the inner and outer edges of the platform, while the remaining two opposite quadrants are surrounded only by a Perspex “lip” (1 cm high) which serves as a tactile guide to animals on these open areas.
Subjects were weighed and tail marked before being injected. After a specified pretreatment time, subjects were placed in a closed quadrant and a 5-min test period were recorded on videotape for subsequent analysis. The maze was cleaned with 5% methanol/water solution and dried thoroughly between test sessions. Behavioural measures comprise percentage time spent on the open areas (% TO) and frequency of stretched attend postures (SAP) from closed to open quadrants. Since the control groups were all treated identically with the same vehicle these were combined to increase power. The Chlordiazepoxide groups were also treated identically with the same dose so these were also combined to increase power. Animals are scored as being in the open area when all four paws were in an open quadrant and in the closed area only when all four paws have passed over the open-closed divide.
Thirty min later at T=0, rats were individually placed in a closed arm of the zero-maze and behavior assessed by a “blind” observer using remote video monitoring over the subsequent 5 min. The animals were then removed and the maze carefully wiped with 5% methanol/water solution before the next test was begun.
Thirty min later at T=0, rats were individually placed in a closed arm of the zero-maze and behavior was assessed by a “blind” observer using remote video monitoring over the subsequent 5 min. The animal were then removed and the maze carefully wiped with 5% methanol/water solution before the next test was begun.
Thirty min later at T=0, rats were individually placed in a closed arm of the zero-maze and behavior was assessed by a “blind” observer using remote video monitoring over the subsequent 5 min.

[2] = test system: participants diagnosed with at least moderate post-traumatic stress disorder (PTSD); test: Double-blind, randomized, placebo-controlled clinical trial of MBDB-assisted psychotherapy in PTSD; type: in vivo, human; settings: for Change in CAPS-5 assessment: Study Conclusion, hydrochloride salt with psychotherapy; for Change in CAPS-5 assessment / Clinician-rated functional impairment score (SDS) / Depression (HAM-D): vs placebo; for Daytime sleepiness (ESS): human, in vivo; for Total dosage of drug to achieve significant mean reduction in CAPS-5: vs racemic MBDB-treated subgroup
Description: A multicenter, randomized, double-blind, placebo-controlled trial is conducted to assess the efficacy and safety of MBDB-assisted psychotherapy versus psychotherapy with placebo control in participants diagnosed with at least moderate post-traumatic stress disorder (PTSD).
This multicenter, randomized, double-blind, placebo-controlled trial is conducted at various sites in the United States with IRB approval from each study site. A flexible dose of MBDB hydrochloride salt or placebo, followed by a supplemental half-dose unless contraindicated by patient's previous response or medical history, is also administered during the Treatment Period with psychotherapy in at least 3 blinded monthly Experimental Sessions. The Supplemental Dose extends the duration of drug effects on the participants during an Experimental Session. MBDB test groups are further subdivided into specific groups receiving only racemic MBDB hydrochloride salt, S-MBDB hydrochloride salt, or R-MBDB hydrochloride salt. An optional Risk Evaluation and Mitigation Strategy (REMS) Protocol may be implemented for the racemic MBDB, S-MBDB, R-MBDB, and placebo-groups. The Treatment Period lasts for approximately 12 weeks. During the Treatment Period, each Experimental Session is followed by three Intervening Sessions of non-drug psychotherapy. Each Experimental Session involves an overnight stay. The Primary Outcome measure, the change in Clinician Administered PTSD Scale for DSM-5 (CAPS-5), is determined by a blinded Independent Rater (IR) pool multiple times throughout the study. The study consists of separate periods for each participant. Initially, prospective participants undergo a Screening Period involving an initial eligibility assessment, a medical history intake, informed consent, and enrollment of eligible participants. Next, a Preparation Period is undertaken for enrolled participants involving medication tapering and clinical baseline assessments to confirm each participant meets enrollment criteria. As part of the Preparation Period, a detailed assessment of co-morbidities to PTSD is recorded. Participants may remain on prescribed courses of selective serotonin reuptake inhibitor (SSRI) or serotonin and norepinephrine reuptake inhibitor (SNRI) treatment. Dosages and/or frequency of administration of a prescribed SSRI or SNRI may be adjusted to fit within study parameters. Participants may be required to taper a prescribed course of medication in order to maintain eligibility within the study. The Treatment Period consists of three monthly Experimental Sessions and associated Intervening Sessions of integrative behavioral psychotherapy. The Treatment Period lasts approximately 12 weeks. Following the Treatment Period is a Follow-up Period and Study Conclusion. During the Follow-up Period and Study Conclusion, participants complete 4 weeks with no study visits, followed by a Study Conclusion visit.
This study compares the effects of three blinded Experimental Sessions of psychotherapy in combination with flexible doses of MBDB or placebo administered as described below. Non-drug preparatory and intervening psychotherapy sessions are also included. Patient's weight is determined for dosage calculation. Initial dose is 180 mg unless this will result in a dosage of less than 1.5 mg/kg of patient weight. Initial dose thereby adjusted upward in 50 mg increments to deliver the lowest dose possible of at least 1.5 mg/kg of patient weight. Initial dose for Experimental Session 2 and 3 is cumulative dose calculated by adding the initial dose plus REMS protocol dose used the previous Experimental Session for each patient.
Randomization occurs prior to the initiation of Experimental Session 1. Each participant is provided the next randomized number in a sequence by a blinded study monitor. Participants are then randomized, according to a computer-generated randomization schedule, 1:1:1:1 to racemic MBDB, S-MBDB, R-MBDB, or placebo. […]

[3] = Physical stability of MBDB salts at 40° C./75% RH; type: physicochemical
Description: During the screen, a single crystal Maleate 1 of sufficient size and quality was obtained from a vapor diffusion experiment with ethanol and hexane. The crystal structure is reported elsewhere but the data confirmed the anhydrous/unsolved nature of the material. […] Two new crystalline forms of MBDB Maleate were observed during the screening designated as MBDB Maleate 2 and MBDB Maleate 3 (FIG. 96, 97). Additional characterization of these samples was conducted to better understand the nature of the materials produced, as shown below. MBDB Maleate 2 was generated once from a cooling crystallization from dioxane. The proton nuclear magnetic resonance (NMR) spectrum was consistent with a monomaleate salt of MBDB and contained residual dioxane. Only a limited amount of material was recovered so the only additional characterization that could be completed was differential scanning calorimetry (DSC). The DSC thermogram appears consistent with an anhydrous/unsolvated form with a likely melt at 96° C. (FIG. 100). […] An attempt was made to reproduce Maleate 2 using the same conditions and seeds of Maleate 2. PXRD analysis of the recovered solids however was consistent with Maleate 1. MBDB Maleate 3 was isolated from an evaporation experiment involving chloroform and ethyl acetate. NMR analysis of the material was consistent with a mono-maleate salt of MBDB. Thermal analysis was consistent with an anhydrous/unsolvated material with a likely melting point of 73° C. (FIG. 101). […] No additional characterization was completed on this sample due to the limited amount of material that was recovered.

[4] = Dynamic vapor sorption (DVS) analysis with post-DVS XRPD; type: physicochemical; settings: for Hygroscopicity by DVS: 25° C., 5 to 95% RH; for Hygroscopic?: based on moisture uptake at 95% observed during DVS analysis; for Post-DVS XRPD (form change): solids after DVS analysis
Description: DVS analysis was carried out using a TA Instruments Q5000 Dynamic Vapor Sorption analyzer. The instrument was calibrated with standard weights and a sodium bromide standard for humidity. Approximately 5-25 mg of sample was loaded into a metal-coated quartz pan for analysis. The sample was analyzed at 25° C. with a maximum equilibration time of one hour in 10% relative humidity (RH) steps from 5 to 95% RH (adsorption cycle) and from 95 to 5% RH (desorption cycle). The movement from one step to the next occurred either after satisfying the equilibrium criterion of 0.01% weight change or, if the equilibrium criterion was not met, after one hour. The percent weight change values were calculated using Microsoft Excel®.

Male Sprague-Dawley rats [5] = test: Rat elevated zero-maze study with racemic MDE, R-MDE, S-MDE and chlordiazepoxide; settings: positive control, 6 mg/kg ip
Description: A reduction in the amount of activity on the open areas is considered to reflect an increase in anxiety. The ethologically-based behavior, stretched attend postures (SAP) from closed to open quadrants, is assessed as an index of anxiety. […] Animals
as §1, §2
Subjects were weighed and tail marked before being injected. After a specified pretreatment time, subjects were placed in a closed quadrant and a 5-min test period were recorded on videotape for subsequent analysis. The maze was cleaned with 5% methanol/water solution and dried thoroughly between test sessions. Behavioural measures comprise percentage time spent on the open areas (% TO) and frequency of stretched attend postures (SAP) from closed to open quadrants. Animals are scored as being in the open area when all four paws were in an open quadrant and in the closed area only when all four paws have passed over the open-closed divide.
Thirty min later at T=0, rats were individually placed in a closed arm of the zero-maze and behavior was assessed by a “blind” observer using remote video monitoring over the subsequent 5 min. The animal was then removed and the maze carefully wiped with 5% methanol/water solution before the next test was begun.
Thirty min later at T=0, rats were individually placed in a closed arm of the zero-maze and behavior assessed by a “blind” observer using remote video monitoring over the subsequent 5 min. The animal was then removed and the maze carefully wiped with 5% methanol/water solution before the next test was begun.

Male Sprague-Dawley rats [6] = test: Rat elevated zero-maze study with MDAI and chlordiazepoxide; type: in vivo; settings: positive control, 6 mg/kg ip
Description: Three rats from the vehicle group, 3 rats from the 2.5 mg/kg MDAI group, and 3 rats from the CDP group were tested on a separate day from the other rats.

[7] = 5 mg/kg ip, continued anxiogenic effect

SMILES: CCC(Cc1ccc2c(c1)OCO2)NC (racemic) [racemic MBDB]
- Frequency of stretched attend postures (SAP) (Male Sprague-Dawley rats [1]; [7]): reached significance
- Frequency of stretched attend postures (SAP) (Male Sprague-Dawley rats [1]; 10 mg/kg ip): consistent level of SAPs similar to the 5 mg/kg
- Frequency of stretched attend postures (SAP) (Male Sprague-Dawley rats [1]; 30 mg/kg ip): showed a trend toward significance
- Dose showing a switch to an anxiolytic effect (magnitude of the reduction in SAPs) (Male Sprague-Dawley rats [1]): 30 mg/kg
- Change in CAPS-5 assessment [2]: significant mean reduction in CAPS-5 assessment compared to the placebo group
- Daytime sleepiness (ESS) [2]: significant improvement in lessening daytime sleepiness
- Clinician-rated functional impairment score (SDS) [2]: significant improvement in clinician-rated functional impairment score
- Depression (HAM-D) [2]: significant improvement depression

SMILES: CCC(Cc1ccc2c(c1)OCO2)NC.O=C(O)CCC(=O)O (single isomer, unassigned) [Succinate 1]
- Physical Stability ([3]; 40° C./75% RH overnight): Tacky solids

SMILES: CCC(Cc1ccc2c(c1)OCO2)NC.O=C(O)CCC(=O)O (single isomer, unassigned) [Succinate 2]
- Hygroscopicity by DVS [4]: possible hydrate formation at high RH conditions
- Hygroscopic? [4]: Moderately
- Physical Stability ([3]; 40° C./75% RH overnight): No change

SMILES: CNC1=Nc2ccc(Cl)cc2C(c2ccccc2)=[N+]([O-])C1 [CDP, Chlordiazepoxide, reference compound]
- Frequency of stretched attend postures (SAP) (Male Sprague-Dawley rats [5]): significant reduction in SAPs
- Percentage of time spent in the open arms (% TO) (Male Sprague-Dawley rats [5]): significant increase in time in the open arms for the R MDE group and S MDE group only
- Frequency of HDIPS (Male Sprague-Dawley rats [6]): trend towards increased
- Percentage of time in the open arms (% TO) (Male Sprague-Dawley rats [6]): significant increase in the percentage of time in the open arms
- Total line crossings (Male Sprague-Dawley rats [6]): trend towards increased
- Total open arm entries (Male Sprague-Dawley rats [6]): trend towards increased
- Frequency of stretched attend postures (SAP) (Male Sprague-Dawley rats [1]; positive control, 6 mg/kg ip): significant reduction in SAPs
- Percentage of time in the open arms (% TO) (Male Sprague-Dawley rats [1]; positive control, 6 mg/kg ip): did not show significance over vehicle

SMILES: CCC(Cc1ccc2c(c1)OCO2)NC.O=C(O)CC(O)(CC(=O)O)C(=O)O (stereo not drawn) [Citrate 1]
- Physical Stability ([3]; 40° C./75% RH overnight): Tacky solids

SMILES: CCC(Cc1ccc2c(c1)OCO2)NC.O=C(O)/C=C/C(=O)O (stereo not drawn) [Fumarate 1]
- Physical Stability ([3]; 40° C./75% RH overnight): No change

SMILES: CCC(Cc1ccc2c(c1)OCO2)NC.O=C(O)[C@@H](O)[C@H](O)[C@H](O)[C@@H](O)C(=O)O (stereo not drawn) [Galactarate 1]
- Physical Stability ([3]; 40° C./75% RH overnight): No change

SMILES: CCC(Cc1ccc2c(c1)OCO2)NC.O=C(O)CCC(=O)O (stereo not drawn) [MBDB succinate Form 2]
- Hygroscopicity by DVS [4]: moderately hygroscopic
- Post-DVS XRPD (form change) [4]: no form change
- Physical Stability ([3]; after 1 day at 40° C./75% RH): No visible change

SMILES: CCC(Cc1ccc2c(c1)OCO2)NC.O=C(O)CC(=O)O (stereo not drawn) [Malonate 1]
- Physical Stability ([3]; 40° C./75% RH overnight): No change

SMILES: CCC(Cc1ccc2c(c1)OCO2)NC.O=P(O)(O)O (stereo not drawn) [Phosphate 1]
- Hygroscopicity by DVS [4]: hygroscopic
- Hygroscopic? [4]: Hygroscopic
- Post-DVS XRPD (form change) [4]: no form change
- Physical Stability ([3]; 40° C./75% RH overnight): No change
- Physical Stability ([3]; after 1 day at 40° C./75% RH): No visible change

SMILES: CC[C@H](Cc1ccc2c(c1)OCO2)NC [R-MBDB]
- Frequency of stretched attend postures (SAP) (Male Sprague-Dawley rats [1]; 10 mg/kg ip): consistent level of SAPs similar to the 5 mg/kg
- Frequency of stretched attend postures (SAP) (Male Sprague-Dawley rats [1]; 15 mg/kg ip): reduction in the number of SAPs compared to lower doses
- Frequency of stretched attend postures (SAP) (Male Sprague-Dawley rats [1]; 30 mg/kg ip): decreased the frequency of SAPs as effectively as the benzodiazepine chlordiazepoxide
- Frequency of stretched attend postures (SAP) (Male Sprague-Dawley rats [1]; 30 mg/kg ip, listed as R MBDB): significantly reduced the number of SAPs
- Dose showing a switch to an anxiolytic effect (magnitude of the reduction in SAPs) (Male Sprague-Dawley rats [1]): 15 mg/kg
- Change in CAPS-5 assessment [2]: significant mean reduction in CAPS-5 assessment compared to the placebo group
- Daytime sleepiness (ESS) [2]: significant improvement in lessening daytime sleepiness
- Clinician-rated functional impairment score (SDS) [2]: significant improvement in clinician-rated functional impairment score
- Depression (HAM-D) [2]: significant improvement depression
- Total dosage of drug to achieve significant mean reduction in CAPS-5 [2]: lower total dosage of drug compared to the racemic MBDB-treated subgroup

SMILES: CC[C@@H](Cc1ccc2c(c1)OCO2)NC [S-MBDB]
- Frequency of stretched attend postures (SAP) (Male Sprague-Dawley rats [1]; [7]): reached significance
- Frequency of stretched attend postures (SAP) (Male Sprague-Dawley rats [1]; 10 mg/kg ip): rapid reduction in total SAPs
- Frequency of stretched attend postures (SAP) (Male Sprague-Dawley rats [1]; 15 mg/kg ip): reduction in the number of SAPs compared to lower doses
- Frequency of stretched attend postures (SAP) (Male Sprague-Dawley rats [1]; 30 mg/kg ip): decreased the frequency of SAPs as effectively as the benzodiazepine chlordiazepoxide
- Magnitude of the reduction in SAPs among MBDB forms (Male Sprague-Dawley rats [1]; 30 mg/kg ip): greatest
- Frequency of stretched attend postures (SAP) (Male Sprague-Dawley rats [1]; 30 mg/kg ip, listed as S MBDB): significantly reduced the number of SAPs
- Dose showing a switch to an anxiolytic effect (magnitude of the reduction in SAPs) (Male Sprague-Dawley rats [1]): 10 mg/kg
- Change in CAPS-5 assessment [2]: significant mean reduction in CAPS-5 assessment compared to the placebo group
- Daytime sleepiness (ESS) [2]: significant improvement in lessening daytime sleepiness
- Clinician-rated functional impairment score (SDS) [2]: significant improvement in clinician-rated functional impairment score
- Depression (HAM-D) [2]: significant improvement depression
- Adverse anxiogenic incidents ([2]; vs placebo-treated controls): without a significant increase in adverse anxiogenic incidents
- Total dosage of drug to achieve significant mean reduction in CAPS-5 [2]: lower total dosage of drug compared to the racemic MBDB-treated subgroup

SMILES: CCC(Cc1ccc2c(c1)OCO2)NC.O=S(=O)(O)O (stereo not drawn) [Sulfate 1]
- Physical Stability ([3]; 40° C./75% RH overnight): Deliquesced

SMILES: CCC(Cc1ccc2c(c1)OCO2)NC.Cc1ccc(S(=O)(=O)O)cc1 (stereo not drawn) [Tosylate 1]
- Physical Stability ([3]; 40° C./75% RH overnight): No change
